Legend:
Test in all cases: relative viability (nuclei count vs DMSO), 5 days (fraction); higher = more cells survive
[1] = compound: CC1=CC(=NN1)NC2=CC(=NC(=N2)/C=C/C3=CC=CC=C3)N4CCN(CC4)C + CC(=O)Nc1cccc(-n2c(=O)n(C3CC3)c(=O)c3c(Nc4ccc(I)cc4F)n(C)c(=O)c(C)c32)c1 [Trametinib] (partner 0.02 µM)
Procedure, shortened: (§1)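 For relative viability, nuclei counts in treated wells were divided by those in vehicle wells. Lung cancer cell lines had been pin-tool dosed in 1536-well plates the day after seeding and cultured for 5 days, then fixed and stained in one step (final 0.05% Triton X-100, 1% formaldehyde, 1 ug/ml Hoechst) and imaged at 4×. Doses were one drug alone or a fixed anchor-drug dose plus five library-drug doses (not always all listed) in √10 steps, and values are duplicate-plate medians.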

Bortezomib + Dasatinib = compound: CC(C)C[C@H](NC(=O)[C@H](Cc1ccccc1)NC(=O)c1cnccn1)B(O)O [Bortezomib] + Cc1nc(Nc2ncc(C(=O)Nc3c(C)cccc3Cl)s2)cc(N2CCN(CCO)CC2)n1 [Dasatinib] (partner 0.075 µM)
Procedure, shortened: as §1

[2] = compound: CC1=CC(=NN1)NC2=CC(=NC(=N2)/C=C/C3=CC=CC=C3)N4CCN(CC4)C + CC1(C)CCC(c2ccc(Cl)cc2)=C(CN2CCN(c3ccc(C(=O)NS(=O)(=O)c4ccc(N[C@H](CCN5CCOCC5)CSc5ccccc5)c(S(=O)(=O)C(F)(F)F)c4)cc3)CC2)C1 [Navitoclax] (partner 0.5 µM)
Procedure, shortened: as §1

Obatoclax + Pemetrexed = compound: COC1=CC(c2cc3ccccc3[nH]2)=N/C1=C\c1[nH]c(C)cc1C [Obatoclax] + Nc1nc2[nH]cc(CCc3ccc(C(=O)N[C@@H](CCC(=O)O)C(=O)O)cc3)c2c(=O)[nH]1 [Pemetrexed] (partner 0.2 µM)
Procedure, shortened: as §1

Row | Cell Line | relative viability ([1]; first compound 0.08 µM) | relative viability ([1]; first compound 0.253 µM) | relative viability ([1]; first compound 0.8 µM) | relative viability ([1]; first compound 2.53 µM) | relative viability ([1]; first compound 8 µM) | relative viability (Bortezomib + Dasatinib; first compound 0.0002 µM) | relative viability (Bortezomib + Dasatinib; first compound 0.000632 µM) | relative viability (Bortezomib + Dasatinib; first compound 0.002 µM) | relative viability (Bortezomib + Dasatinib; first compound 0.006325 µM) | relative viability (Bortezomib + Dasatinib; first compound 0.02 µM) | relative viability ([2]; first compound 0.08 µM) | relative viability ([2]; first compound 0.253 µM) | relative viability ([2]; first compound 0.8 µM) | relative viability ([2]; first compound 2.53 µM) | relative viability ([2]; first compound 8 µM) | relative viability (Obatoclax + Pemetrexed; first compound 0.01 µM) | relative viability (Obatoclax + Pemetrexed; first compound 0.03162 µM) | relative viability (Obatoclax + Pemetrexed; first compound 0.1 µM) | relative viability (Obatoclax + Pemetrexed; first compound 0.3162 µM) | relative viability (Obatoclax + Pemetrexed; first compound 1 µM)
1 | LXF-289 | 0.637 | 0.623 | 0.637 | 0.592 | 0.442 | 0.374 | 0.151 | 0.227 | 0.0474 | 0.0368 | 0.924 | 0.966 | 0.922 | 0.772 | 0.325 | 0.847 | 0.907 | 0.835 | 0.94 | 0.854
2 | NCI-H23 | 0.302 | 0.317 | 0.257 | 0.142 | 0.118 | 0.913 | 0.976 | 0.76 | 0.224 | 0.108 | 0.79 | 0.909 | 0.867 | 0.364 | 0.15 | 0.665 | 0.636 | 0.717 | 0.561 | 0.468
3 | NCI-H322M | 0.485 | 0.57 | 0.811 | 0.337 | 0.327 | 0.26 | – | 0.253 | 0.229 | 0.286 | 1.18 | 1.41 | 1.09 | 0.802 | 0.318 | 0.683 | 0.609 | 0.632 | 0.655 | 0.625
4 | NCI-H441 | 0.434 | 0.426 | 0.42 | 0.141 | 0.0993 | 0.646 | 0.507 | 0.282 | 0.136 | 0.119 | 0.704 | 0.503 | 0.302 | 0.187 | 0.122 | 0.231 | 0.217 | 0.27 | 0.244 | 0.269
5 | NCI-H460 | 0.171 | 0.0318 | 0.129 | 0.0109 | 0.0042 | 0.437 | 0.507 | 0.514 | 0.342 | 0.0305 | 1.07 | 1.58 | 0.952 | 0.0095 | 0.0091 | 0.0642 | 0.0576 | 0.0607 | 0.0693 | 0.0648
6 | NCI-H520 | 0.758 | 0.531 | 0.543 | 0.12 | 0.111 | 0.173 | 0.207 | 0.18 | 0.201 | 0.179 | 0.985 | 1.12 | 0.889 | 0.198 | 0.127 | 0.657 | 0.714 | 0.656 | 0.643 | 0.249
7 | NCI-H596 | 0.846 | 1.07 | 0.839 | 0.4 | 0.216 | 0.488 | 0.519 | 0.596 | 0.2 | 0.184 | 0.91 | 1.04 | 0.705 | 0.489 | 0.27 | 0.516 | 0.504 | 0.459 | 0.467 | 0.429
8 | NCI-H647 | 0.504 | 0.282 | 0.377 | 0.109 | 0.0926 | 0.203 | 0.156 | 0.188 | 0.0197 | 0.017 | 1.05 | 1.38 | 1.07 | 0.0912 | 0.0329 | 0.207 | 0.164 | 0.19 | 0.144 | 0.116
9 | NCI-H838 | 0.526 | 0.541 | 0.44 | 0.119 | 0.12 | 0.271 | 0.261 | 0.32 | 0.209 | 0.16 | 1.22 | 1.22 | 0.866 | 0.305 | 0.134 | 0.237 | 0.247 | 0.233 | 0.223 | 0.198
10 | NCI-H1355 | 0.457 | 0.435 | 0.415 | 0.334 | 0.151 | 0.69 | 0.753 | 0.813 | 0.18 | 0.156 | 0.878 | 0.961 | 0.974 | 0.701 | 0.386 | 1.05 | 0.994 | 1.06 | 1 | 0.966
11 | NCI-H1395 | 0.964 | 1.03 | 0.975 | 0.659 | 0.263 | 0.428 | 0.41 | 0.427 | 0.352 | 0.306 | 1.32 | 1.27 | 1.59 | 0.676 | 0.308 | 0.84 | 0.781 | 0.827 | 0.711 | 0.657
12 | NCI-H1437 | 0.532 | 0.621 | 0.577 | 0.272 | 0.223 | 0.335 | 0.374 | 0.486 | 0.129 | 0.11 | 1.06 | 1.12 | 1.03 | 0.816 | 0.175 | 0.305 | 0.344 | 0.324 | 0.307 | 0.319
13 | NCI-H1650 | 0.547 | 0.566 | 0.651 | 0.197 | 0.0762 | 0.354 | 0.302 | 0.181 | 0.197 | 0.207 | 1.28 | 1.43 | 0.902 | 0.358 | 0.107 | 0.397 | 0.356 | 0.361 | 0.377 | 0.331
14 | NCI-H1651 | 0.801 | 0.83 | 0.832 | 0.758 | 0.395 | 0.387 | 0.442 | 0.153 | 0.105 | 0.0988 | 0.974 | 1.11 | 0.837 | 0.424 | 0.129 | 0.591 | 0.439 | 0.528 | 0.373 | 0.603

— the supplement of paper PMC10307832
